In one data set the target is T1, CYP1A1 (Homo sapiens, UniProt P04798).
T1 sequence (P04798 1-512): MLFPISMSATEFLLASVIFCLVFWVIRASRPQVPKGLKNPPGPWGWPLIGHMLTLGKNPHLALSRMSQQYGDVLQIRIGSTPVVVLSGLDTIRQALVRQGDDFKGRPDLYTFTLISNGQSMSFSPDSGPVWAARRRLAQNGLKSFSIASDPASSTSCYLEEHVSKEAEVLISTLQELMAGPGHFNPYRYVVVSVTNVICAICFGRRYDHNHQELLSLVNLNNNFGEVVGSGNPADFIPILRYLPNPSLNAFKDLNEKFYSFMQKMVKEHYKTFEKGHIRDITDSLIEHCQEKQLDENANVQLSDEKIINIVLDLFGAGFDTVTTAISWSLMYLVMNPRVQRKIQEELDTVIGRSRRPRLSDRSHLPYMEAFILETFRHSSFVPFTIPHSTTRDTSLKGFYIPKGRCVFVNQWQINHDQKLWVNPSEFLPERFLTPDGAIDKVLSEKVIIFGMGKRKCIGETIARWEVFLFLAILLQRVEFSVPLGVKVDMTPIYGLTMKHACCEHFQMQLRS
The note with it: with various proteins, such as CYP1A1; transformation into kaempferol; cited from earlier work.

In a further data set the test system is hypersensitive teeth. Put plainly: Randomized controlled study of dentine hypersensitivity: visual analogue scale (VAS) score with hot applicator and ice cube, before and after first mouthwash application. The data set is classed as in vivo, patients. Also on record: key to Before Ice / Before Hot: VAS score, 0 = no pain to 10 = severe pain (10 cm line). The note with it: for Hot After 1 use Mean / Ice After 1 use Mean / Before Hot Mean / Before Ice Mean / Hot After 1 use / Ice After 1 use: VAS 0-10; for Hot After 1 use Mean / Ice After 1 use Mean / Before Hot Mean / Before Ice Mean: group mean of 6 subjects; for Hot After 1 use Mean / Ice After 1 use Mean: after first application of mouthwash; for Hot After 1 use Mean / Before Hot Mean / Hot After 1 use / Before Hot / Modifications in HS after the product application, Hot After 1 use, %: applicator heated to 90C; for Ice After 1 use Mean / Before Ice Mean / Ice After 1 use / Before Ice / Modifications in HS after the product application, Ice After 1 use, %: ice cube; for Before Hot Mean / Before Ice Mean / Before Hot / Before Ice: baseline before mouthwash; for Hot After 1 use / Ice After 1 use / Before Hot / Before Ice: individual subjects 1-6; for Hot After 1 use / Ice After 1 use: after first application of mouthwash (potassium nitrate 5%, galangin 0,1%, adenosine 0,05%, oleic acid 0,1% or combination); for Before Hot / Before Ice: VAS 0 - no pain, 10 - severe pain; for Modifications in HS after the product application, Hot After 1 use, % / Modifications in HS after the product application, Ice After 1 use, %: decrease of mean VAS versus before, mouthwash, first application. The source says: Table 2. Schedule of enrollment, intervention and assessment of the study
• Age from 18 to 35 years old • Good overall health; • At least one DHS tooth with sensitivity over or equal to 4 (VAS). Withdrawal criteria • Active caries or defective restorations on the tested tooth; • Considerable loss of dentine, requiring remedial treatment or paradental surgery; • Presence of veneers; • Any professional desensitizing treatment during previous 6 months; • Use of desensitizing toothpaste during previous 3 months. • Use of anti-inflammatory medicine or painkillers during enrollment; • Currently pregnant of breast-feeding.
The subjects were randomized into 6 treatment groups, two control groups of which were negative and positive controls (Fig. 3).
For random distribution of subjects, randomization was made as a draw with the website www.randomizer.org. An average value of initial points according to DHS degree was determined for each subject, and the subjects were randomized into treatment groups providing the equivalent initial DHS points for various treatment modes. All the hypersensitive teeth in each subject were estimated with the use of DHS; an average value was considered for the baseline. All the hypersensitive teeth were subjected and re-estimated. Next, and average value was calculated for the final estimation of sensitivity.
These products were used by them till the end of the study. An oral care set included soft toothbrush and toothpaste for general oral care.
The treatment groups received mouthwashes with the following systems; Table 3. Basic formulation of mouthwash to include the system: […]
The primary result expected in the study was the decrease of dental hypersensitivity after the first application of the product. The result of the system application was calculated with a visual analogue scale, which registers sensitivity with a 10 cm line. The line extremums are the pain limits, which the subject can feel from external irritant (0 - no pain; 10 - severe pain). First, dental sensitivity was registered with an ice cube and an applicator heated to 90C. After the first application, sensitivity to external irritant was registered with an ice cube and an applicator heated to 90C.
The tested sample size was 36 subjects. The data was collected and then filtered out from errors and processed with the standard functionality of MS Excel. The charts were made with Microsoft Excel software. Table 5. Results of hypersensitivity assessment study

For data set [1] the following is noted: pure galangin; cited from earlier work.
For data set [2] the following is noted: oral administration; due to intensive metabolism; cited from earlier work.
The next data set deals with TRPV1 (Homo sapiens, UniProt Q8NER1). The note with it: clinical trial after third molar extraction; trial terminated; cited from earlier work.
A further data set deals with T2, TRPC5 receptors (Homo sapiens, UniProt Q9UL62).
T2 sequence (Q9UL62 1-973): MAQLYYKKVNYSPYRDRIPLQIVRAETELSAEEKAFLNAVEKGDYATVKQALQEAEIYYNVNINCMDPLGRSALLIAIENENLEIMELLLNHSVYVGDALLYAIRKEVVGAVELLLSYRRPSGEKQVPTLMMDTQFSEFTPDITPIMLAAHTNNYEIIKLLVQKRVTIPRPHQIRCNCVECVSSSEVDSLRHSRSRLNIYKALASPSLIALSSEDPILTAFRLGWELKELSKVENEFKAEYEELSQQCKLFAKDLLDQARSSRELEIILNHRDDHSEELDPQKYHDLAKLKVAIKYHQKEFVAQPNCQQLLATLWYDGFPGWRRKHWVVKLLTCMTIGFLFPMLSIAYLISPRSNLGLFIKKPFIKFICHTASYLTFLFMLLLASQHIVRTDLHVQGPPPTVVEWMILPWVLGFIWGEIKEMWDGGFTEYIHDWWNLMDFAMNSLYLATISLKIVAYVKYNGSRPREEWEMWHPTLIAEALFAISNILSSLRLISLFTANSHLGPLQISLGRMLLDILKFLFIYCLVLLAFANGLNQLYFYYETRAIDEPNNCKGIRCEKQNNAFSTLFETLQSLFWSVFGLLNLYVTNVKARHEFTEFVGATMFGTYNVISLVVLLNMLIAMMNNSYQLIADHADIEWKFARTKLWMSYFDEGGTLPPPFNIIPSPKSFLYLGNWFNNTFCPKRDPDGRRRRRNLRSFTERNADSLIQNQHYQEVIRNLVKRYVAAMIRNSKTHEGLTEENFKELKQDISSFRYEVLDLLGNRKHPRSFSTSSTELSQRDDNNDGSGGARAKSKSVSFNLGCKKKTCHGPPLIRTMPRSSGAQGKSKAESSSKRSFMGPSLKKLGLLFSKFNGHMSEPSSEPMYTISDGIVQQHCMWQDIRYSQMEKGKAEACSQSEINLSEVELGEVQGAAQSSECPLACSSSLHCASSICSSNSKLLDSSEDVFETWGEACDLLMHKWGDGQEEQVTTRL
The note with it: compared with galangin; cited from earlier work.

The subject of another data set is TRPC5. To be noted: animal model, cited from earlier work.

Values joined by “and” are separate entries in the source; they are usually repeats but may differ in a detail not shown here. Equal values may be shown once.

Chain of TRPV1 (Q8NER1 whole entry): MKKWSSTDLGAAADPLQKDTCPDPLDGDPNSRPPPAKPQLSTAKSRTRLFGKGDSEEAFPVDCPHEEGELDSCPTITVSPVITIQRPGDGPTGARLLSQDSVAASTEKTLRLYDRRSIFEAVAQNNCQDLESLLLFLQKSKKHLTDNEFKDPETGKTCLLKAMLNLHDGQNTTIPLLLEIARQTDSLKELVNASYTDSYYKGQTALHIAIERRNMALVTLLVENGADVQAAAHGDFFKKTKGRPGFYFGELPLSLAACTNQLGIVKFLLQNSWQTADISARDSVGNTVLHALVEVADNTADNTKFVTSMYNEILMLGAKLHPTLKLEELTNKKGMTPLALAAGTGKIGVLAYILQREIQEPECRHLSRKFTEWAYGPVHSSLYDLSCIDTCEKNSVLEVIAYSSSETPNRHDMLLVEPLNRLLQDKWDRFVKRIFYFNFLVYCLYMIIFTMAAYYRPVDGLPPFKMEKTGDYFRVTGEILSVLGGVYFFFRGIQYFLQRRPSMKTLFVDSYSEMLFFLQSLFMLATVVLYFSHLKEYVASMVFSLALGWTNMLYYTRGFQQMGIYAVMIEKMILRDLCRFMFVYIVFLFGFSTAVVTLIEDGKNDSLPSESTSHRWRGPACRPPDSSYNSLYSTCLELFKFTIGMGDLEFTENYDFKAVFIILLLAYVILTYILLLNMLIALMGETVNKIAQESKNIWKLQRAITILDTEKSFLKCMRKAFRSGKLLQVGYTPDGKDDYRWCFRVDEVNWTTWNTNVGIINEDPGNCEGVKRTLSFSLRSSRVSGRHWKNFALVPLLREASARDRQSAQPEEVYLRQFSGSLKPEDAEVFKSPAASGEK

As to `O=c1c(O)c(-c2ccccc2)oc2cc(O)cc(O)c12` [Galangin, galangin], the metabolic oxidation entry on CYP1A1 is listed as “prone to rapid metabolic oxidation”. In addition, in the data set with hypersensitive teeth, the “Hot After 1 use Mean” value is listed as 4,6, the “Ice After 1 use Mean” value was 2,5, the “Before Hot Mean” value is 5,2 and the “Before Ice Mean” value is recorded as 5,8. Also, in the data set on hypersensitive teeth, the “Modifications in HS after the product application, Hot After 1 use, %” value (“Modifications in HS … Hot After 1 use, %” for short) stood at 11.5% and the “Modifications in HS after the product application, Ice After 1 use, %” value (“Modifications in HS … Ice After 1 use, %” for short) is 56,9%. Moreover, in the data set on hypersensitive teeth (listed as 3), the “Hot After 1 use” value is 4 and 6 and 3 and 5 (3×); the “Ice After 1 use” value is 3 (2×) and 2 (2×) and 4 and 1; the “Before Hot” value was 3 and 6 (2×) and 4 and 7 and 5; the “Before Ice” value was 6 (3×) and 5 (2×) and 7. The solubility in water entry in data set [1] is listed as “practically insoluble in water”. Moreover, in data set [2], the bioavailability result is reported as “extremely low bioavailability”.
In the case of `CC(=O)Nc1nc2c(Oc3cc(-c4ccc(C(F)(F)F)cc4)ncn3)cccc2s1` [AMG 517], the body temperature result at TRPV1 is on record as “increased body temperature”.
As to `O=c1c(O)c(-c2ccc(O)cc2)oc2cc(O)cc(O)c12` [kaempferol], the “impact on TRPC5 receptors” value at TRPC5 receptors is reported as “either does not affect TRPC5 receptors, or shows a significantly milder impact than that of galangin”.
For `Cc1cc(N2CCCCC2)nc2ccccc12` [ML204], the “response to cold and pain” value in the data set with TRPC5 (TRPC5 blockers) is “effectively eliminated any response to cold and prevented pain”.
As for `CCCCCCCC/C=C\CCCCCCCC(=O)O` [Oleic acid, oleic acid], in the data set with hypersensitive teeth, the “Hot After 1 use Mean” value is given as 4,3, the “Ice After 1 use Mean” value is recorded as 5,2, the “Before Hot Mean” value is 6,8 and the “Before Ice Mean” value was 7,2. Besides, in the data set with hypersensitive teeth, the “Modifications in HS … Hot After 1 use, %” value came out at 36.8% and the “Modifications in HS … Ice After 1 use, %” value is reported as 27.8%. Besides, in the data set on hypersensitive teeth (listed as 5), the “Hot After 1 use” value was 3 and 5 and 4 (3×) and 6; the “Ice After 1 use” value was 8 and 4 (2×) and 6 (2×) and 3; the “Before Hot” value was 5 and 9 and 6 (2×) and 8 and 7; the “Before Ice” value is 9 and 8 (2×) and 5 and 7 and 6.
With `Nc1nc2ccc(OC(F)(F)F)cc2s1` [ruizole], the jaw sensitivity entry in the data set with TRPC5 (agonist of TRPC5 channel) was “increased jaw sensitivity”.
For `O=[N+]([O-])[O-].[K+]` [Potassium nitrate], in the data set with hypersensitive teeth, the “Hot After 1 use Mean” value worked out at 6, the “Ice After 1 use Mean” value was 5,7, the “Before Hot Mean” value was 6,7 and the “Before Ice Mean” value is 7,6. Also, in the data set with hypersensitive teeth, the “Modifications in HS … Hot After 1 use, %” value was 10.4% and the “Modifications in HS … Ice After 1 use, %” value was found to be 25%. Also, in the data set on hypersensitive teeth (listed as 1), the “Hot After 1 use” value is 5 (2×) and 4 and 7 (2×) and 8; the “Ice After 1 use” value is 5 (2×) and 4 and 7 (2×) and 6; the “Before Hot” value is 5 (2×) and 6 and 8 (3×); the “Before Ice” value is 7 and 8 (3×) and 6 and 9.
As for `Nc1ncnc2c1ncn2[C@@H]1O[C@H](CO)[C@@H](O)[C@H]1O` [Adenosine, adenosine], in the data set on hypersensitive teeth, the “Hot After 1 use Mean” value turned out to be 4, the “Ice After 1 use Mean” value was 6,8, the “Before Hot Mean” value is listed as 7,3 and the “Before Ice Mean” value amounted to 7. Further, in the data set on hypersensitive teeth, the “Modifications in HS … Hot After 1 use, %” value stood at 45.2% and the “Modifications in HS … Ice After 1 use, %” value worked out at 2.8%. In the data set with hypersensitive teeth (listed as 4), the “Hot After 1 use” value was 5 and 6 and 4 (2×) and 2 and 3; the “Ice After 1 use” value was 8 and 9 and 6 (2×) and 5 and 7; the “Before Hot” value was 8 and 9 (2×) and 7 and 6 and 5; the “Before Ice” value was 8 (2×) and 7 (2×) and 6 (2×).

Values taken from EP4599817A1, “IMPACT ON ENAMEL AND DENTINE […] THROUGH MEDIATED IMPACT OF ANTAGONISTS ON TRPV1 AND TRCP5 […] IN ORAL CARE PRODUCTS” (SkyLab AG, priority 2024, dated 2025).
